# Data as given in patent US9102591B2, “Benzamides” (H. Lundbeck A/S, priority 2012, dated 2015).
# Target: P2X7 receptor (Homo sapiens (Human), UniProt Q99572)
# Experiment: P2X7 FLIPR assay (BzATP-stimulated calcium fluorescence, antagonist IC50)
# Assay type: cell-based
# In short: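 Cells expressing P2X7 receptor (human, rat or mouse), plated 24 hours earlier in low-serum medium, loaded with Fluo-4 NW dye (30 min 37° C, 30 min room temperature).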
# P2X7 receptor, sequence (Q99572 whole entry): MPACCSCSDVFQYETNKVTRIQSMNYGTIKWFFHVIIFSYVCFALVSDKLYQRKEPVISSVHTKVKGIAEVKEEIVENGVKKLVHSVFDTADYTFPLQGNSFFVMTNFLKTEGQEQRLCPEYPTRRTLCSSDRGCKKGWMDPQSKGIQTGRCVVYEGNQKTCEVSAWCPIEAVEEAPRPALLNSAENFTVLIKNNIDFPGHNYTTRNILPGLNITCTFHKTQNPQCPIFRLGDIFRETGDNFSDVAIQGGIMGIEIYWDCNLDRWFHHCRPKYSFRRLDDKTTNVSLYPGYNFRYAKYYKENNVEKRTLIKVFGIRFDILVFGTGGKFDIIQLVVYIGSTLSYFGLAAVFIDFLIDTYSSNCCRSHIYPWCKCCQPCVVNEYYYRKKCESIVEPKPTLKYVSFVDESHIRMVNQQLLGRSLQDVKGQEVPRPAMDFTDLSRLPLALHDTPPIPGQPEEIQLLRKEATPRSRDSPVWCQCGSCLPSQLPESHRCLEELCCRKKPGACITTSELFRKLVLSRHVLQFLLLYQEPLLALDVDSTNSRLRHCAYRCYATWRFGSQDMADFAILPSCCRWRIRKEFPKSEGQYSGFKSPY
row,Structure (SMILES),IC50
1,"Cc1c(C#N)cccc1C(=O)NCC1(c2ccc(C(F)(F)F)nc2)CCC(F)(F)CC1 [3-cyano-N-((4,4-difluoro-1-(6-(trifluoromethyl)pyridin-3-yl)cyclohexyl)methyl)-2-methylbenzamide]",45 nM
2,"CS(=O)(=O)c1ccc(Cl)c(C(=O)NCC(CC2CC2)c2ccc(C(F)(F)F)nc2)c1 (single isomer, unassigned; (+)) [(+)2-chloro-N-[3-cyclopropyl-2-[6-(trifluoromethyl)-3-pyridy] [(+)2-chloro-N-[3-cyclopropyl-2-[6-(trifluoromethyl)-3-pyridyl]propyl]-5-methylsulfonyl-benzamide]",560 nM
3,"Cc1ncc(C(CNC(=O)c2ccccc2Cl)CC2(C(F)(F)F)CC2)cn1 (single isomer, unassigned; (-)) [(−)2-chloro-N-[2-(2-methylpyrimidin-5-yl)-3-[1-(trifluoromet] [(−)2-chloro-N-[2-(2-methylpyrimidin-5-yl)-3-[1-(trifluoromethyl)cyclopropyl]propyl]benzamide]",650 nM
4,"O=C(NCC(CC1CC1)c1ccc(C(F)F)nc1)c1cccc(F)c1Cl (single isomer, unassigned; (-)) [(−)2-chloro-N-[3-cyclopropyl-2-[6-(difluoromethyl)-3-pyridyl] [(−)2-chloro-N-[3-cyclopropyl-2-[6-(difluoromethyl)-3-pyridyl]propyl]-3-fluoro-benzamide]",19 nM
5,"O=C(NCC1(c2ccc(F)nc2)CCC(F)(F)CC1)c1cccc(F)c1F [N-((4,4-difluoro-1-(6-fluoropyridin-3-yl)cyclohexyl)methyl)-2,3-difluorobenzamide]",290 nM
6,"O=C(NCC(CC1CC1)c1ccc(C(F)F)nc1)c1cccc(Cl)c1Cl (single isomer, unassigned; (+)) [(+)2,3-dichloro-N-[3-cyclopropyl-2-[6-(difluoromethyl)-3-pyridyl]propyl]benzamide]",24 nM
7,Cc1ccccc1C(=O)NCC1(c2cccnc2)CCCC1 [2-Methyl-N-(1-pyridin-3-yl-cyclopentylmethyl)-benzamide],3600 nM
8,O=C(NCC(CC1CC1)c1cnc(C(F)(F)F)nc1)c1ccccc1Cl (centres unmarked) [2-chloro-N-(3-cyclopropyl-2-(2-(trifluoromethyl)pyrimidin-5-] [2-chloro-N-(3-cyclopropyl-2-(2-(trifluoromethyl)pyrimidin-5-yl)propyl)benzamide],13 nM
9,Cc1ccc(C(CNC(=O)c2ccccc2C)CC(C)C)cn1 (centres unmarked) [2-Methyl-N-[4-methyl-2-(6-methyl-pyridin-3-yl)-pentyl]-benzamide],29 nM
10,Cc1ccc(Cl)c(C(=O)NCC2(c3ccc(Cl)cc3)CCOCC2)c1 [2-Chloro-N-[4-(4-chloro-phenyl)-tetrahydro-pyran-4-ylmethyl]-5-methyl-benzamide],62 nM
11,O=C(NCC1(c2ccc(C(F)(F)F)cc2)CCOCC1)c1cccc(Cl)c1Cl,41 nM
12,O=C(NCC(c1ccc(Cl)cc1)C1CCOCC1)c1cccc(F)c1Cl (centres unmarked) [2-chloro-N-[2-(4-chlorophenyl)-2-tetrahydropyran-4-yl-ethyl]-3-fluoro-benzamide],15 nM
13,"O=C(NCC(c1ccc(F)cc1)c1ccc(C(F)(F)F)nc1)c1c(F)cccc1Cl (single isomer, unassigned; (+)) [(+)2-chloro-6-fluoro-N-[2-(4-fluorophenyl)-2-[6-(trifluorome] [(+)2-chloro-6-fluoro-N-[2-(4-fluorophenyl)-2-[6-(trifluoromethyl)-3-pyridyl]ethyl]benzamide]",15 nM
14,Cc1ncc(C(CNC(=O)c2c(F)cccc2Cl)C2CCOCC2)cn1 (centres unmarked) [2-chloro-6-fluoro-N-[2-(2-methylpyrimidin-5-yl)-2-tetrahydropyran-4-yl-ethyl]benzamide],1900 nM
15,"O=C(NCC(c1cnc(C(F)(F)F)nc1)C1CCOCC1)c1cccc(F)c1Cl (single isomer, unassigned; (+)) [(+)2-chloro-3-fluoro-N-[2-tetrahydropyran-4-yl-2-[2-(trifluo] [(+)2-chloro-3-fluoro-N-[2-tetrahydropyran-4-yl-2-[2-(trifluoromethyl)pyrimidin-5-yl]ethyl]benzamide]",32 nM
16,"Cc1ncc(C(CNC(=O)c2ccccc2Cl)C2CCC(F)(F)CC2)cn1 (centres unmarked) [2-chloro-N-[2-(4,4-difluorocyclohexyl)-2-(2-methylpyrimidin-5-yl)ethyl]benzamide]",90 nM
17,"CC(C)(O)c1ccc(C(CNC(=O)c2cccc(Cl)c2Cl)CC2CC2)cn1 (single isomer, unassigned; (-)) [(−)2,3-dichloro-N-[3-cyclopropyl-2-[6-(1-hydroxy-1-methyl-et] [(−)2,3-dichloro-N-[3-cyclopropyl-2-[6-(1-hydroxy-1-methyl-ethyl)-3-pyridyl]propyl]benzamide]",30 nM
18,"O=C(NCC(CC1CC1)c1cnc(C(F)(F)F)nc1)c1c(F)cccc1Cl (single isomer, unassigned; (+)) [(+)2-chloro-N-[3-cyclopropyl-2-[2-(trifluoromethyl)pyrimidin] [(+)2-chloro-N-[3-cyclopropyl-2-[2-(trifluoromethyl)pyrimidin-5-yl]propyl]-6-fluoro-benzamide]",41 nM
19,COc1ccc(C2(CNC(=O)c3ccccc3C)CCCC2)cc1 [N-[1-(4-Methoxy-phenyl)-cyclopentylmethyl]-2-methyl-benzamide],1400 nM
20,Cc1ncc(C(CNC(=O)c2ccccc2Cl)CC2CC2)cn1 (centres unmarked) [2-chloro-N-[3-cyclopropyl-2-(2-methylpyrimidin-5-yl)propyl]benzamide],1200 nM
21,"Cc1ccc(C(F)(F)F)cc1C(=O)NCC1(c2ccc(C(F)(F)F)nc2)CCC(F)(F)CC1 [N-((4,4-difluoro-1-(6-(trifluoromethyl)pyridin-3-yl)cyclohexyl)methyl)-2-methyl-5-(trifluoromethyl)benzamide]",39 nM
22,"O=C(NCC1(c2ccc(C(F)(F)F)nc2)CCOCC1)c1cccc(Cl)c1Cl [2,3-dichloro-N-((4-(6-(trifluoromethyl)pyridin-3-yl)tetrahydro-2H-pyran-4-yl)methyl)benzamide]",52 nM

# Stronger by IC50, values ahead:
row,IC50,Structure (SMILES)
1,4.4 nM,"O=C(NCC(c1ccc(F)cc1)c1cnc(C(F)(F)F)nc1)c1ccccc1Cl (single isomer, unassigned; (+)) [(+)2-chloro-N-[2-(4-fluorophenyl)-2-[2-(trifluoromethyl)pyri] [(+)2-chloro-N-[2-(4-fluorophenyl)-2-[2-(trifluoromethyl)pyrimidin-5-yl]ethyl]benzamide]"
2,3.8 nM,"O=C(NCC(CC1CC1)c1cnc(C(F)(F)F)nc1)c1c(Cl)cccc1Cl (single isomer, unassigned; (+)) [(+)2,6-dichloro-N-[3-cyclopropyl-2-[2-(trifluoromethyl)pyrim] [(+)2,6-dichloro-N-[3-cyclopropyl-2-[2-(trifluoromethyl)pyrimidin-5-yl]propyl]benzamide]"
3,2 nM,"O=C(NCC(c1ccc(F)cc1)c1cnc(C(F)(F)F)nc1)c1ccccc1Cl (single isomer, unassigned; (-)) [(−)2-chloro-N-[2-(4-fluorophenyl)-2-[2-(trifluoromethyl)pyri] [(−)2-chloro-N-[2-(4-fluorophenyl)-2-[2-(trifluoromethyl)pyrimidin-5-yl]ethyl]benzamide]"
4,1.3 nM,"O=C(NCC1(c2ccc(C3CC3)nc2)CCC(F)(F)CC1)c1cccc(Cl)c1Cl [2,3-dichloro-N-((1-(6-cyclopropylpyridin-3-yl)-4,4-difluorocyclohexyl)methyl)benzamide]"
5,1.2 nM,"O=C(NCC(c1ccc(F)cc1)c1cnc(C(F)(F)F)nc1)c1cccc(Cl)c1Cl (single isomer, unassigned; (-)) [(−)2,3-dichloro-N-[2-(4-fluorophenyl)-2-[2-(trifluoromethyl)] [(−)2,3-dichloro-N-[2-(4-fluorophenyl)-2-[2-(trifluoromethyl)pyrimidin-5-yl]ethyl]benzamide]"
6,0.95 nM,"O=C(NCC1(c2cnc(C(F)(F)F)nc2)CCC(F)(F)CC1)c1cccc(Cl)c1Cl [2,3-dichloro-N-[[4,4-difluoro-1-[2-(trifluoromethyl)pyrimidin-5-yl]cyclohexyl]methyl]benzamide]"
7,9.3 nM,"O=C(NCC(CC1(F)CC1)c1cnc(C(F)(F)F)nc1)c1cccc(Cl)c1Cl (centres unmarked) [2,3-dichloro-N-[3-(1-fluorocyclopropyl)-2-[2-(trifluoromethyl)pyrimidin-5-yl]propyl]benzamide]"
8,4.1 nM,"O=C(NC[C@H](c1cnc(C(F)(F)F)nc1)C1CCOCC1)c1cccc(Cl)c1Cl (single isomer, unassigned) [(+)2,3-dichloro-N-[2-tetrahydropyran-4-yl-2-[2-trifluoromethyl)pyrimidin-5-yl]ethyl]benzamide]"
9,1.4 nM,"O=C(NCC1(c2ccc(C(F)(F)F)nc2)CCC(F)(F)CC1)c1cccc(F)c1Cl [2-chloro-N-((4,4-difluoro-1-(6-(trifluoromethyl)pyridin-3-yl)cyclohexyl)methyl)-3-fluorobenzamide]"
10,8.7 nM,"CS(=O)(=O)c1ccc(Cl)c(C(=O)NCC2(c3ccc(F)nc3)CCC(F)(F)CC2)c1 [2-chloro-N-((4,4-difluoro-1-(6-fluoropyridin-3-yl)cyclohexyl)methyl)-5-(methylsulfonyl)benzamide]"
11,6.2 nM,"O=C(NCC(c1ccncc1)c1cnc(C(F)(F)F)nc1)c1cccc(Cl)c1Cl (centres unmarked) [2,3-dichloro-N-[2-(4-pyridyl)-2-[2-(trifluoromethyl)pyrimidin-5-yl]ethyl]benzamide]"
12,1.6 nM,"O=C(NCC(CC1(C(F)(F)F)CC1)c1cnc(C(F)(F)F)nc1)c1cccc(Cl)c1Cl (single isomer, unassigned; (+)) [(+)2,3-dichloro-N-[3-[1-(trifluoromethyl)cyclopropyl]-2-[2-(] [(+)2,3-dichloro-N-[3-[1-(trifluoromethyl)cyclopropyl]-2-[2-(trifluoromethyl)pyrimidin-5-yl]propyl]benzamide]"
13,0.83 nM,"COc1ccc(Cl)c(C(=O)NCC2(c3ccc(F)nc3)CCC(F)(F)CC2)c1 [2-chloro-N-((4,4-difluoro-1-(6-fluoropyridin-3-yl)cyclohexyl)methyl)-5-methoxybenzamide]"
